Source: ChEMBL document CHEMBL4350991, “Design, synthesis, and biological evaluation of rutacecarpine derivatives as multitarget-directed ligands for the treatment of Alzheimer's disease” (Eur J Med Chem, 2019)

What was measured:
PC-12 [1] = experiment: cells; assay type: functional; details: Rattus norvegicus
PC-12 [2] = experiment: cells; assay type: functional; details: Rattus norvegicus; remark: listed apart in the source
PC-12 [3] = experiment: cells; assay type: functional; details: Rattus norvegicus; remark: listed apart in the source
PC-12 [4] = experiment: cells; assay type: functional; details: Rattus norvegicus; remark: listed apart in the source
Cholinesterase = Cholinesterase (Equus caballus, UniProt P81908)
Chain of Cholinesterase (P81908 whole entry): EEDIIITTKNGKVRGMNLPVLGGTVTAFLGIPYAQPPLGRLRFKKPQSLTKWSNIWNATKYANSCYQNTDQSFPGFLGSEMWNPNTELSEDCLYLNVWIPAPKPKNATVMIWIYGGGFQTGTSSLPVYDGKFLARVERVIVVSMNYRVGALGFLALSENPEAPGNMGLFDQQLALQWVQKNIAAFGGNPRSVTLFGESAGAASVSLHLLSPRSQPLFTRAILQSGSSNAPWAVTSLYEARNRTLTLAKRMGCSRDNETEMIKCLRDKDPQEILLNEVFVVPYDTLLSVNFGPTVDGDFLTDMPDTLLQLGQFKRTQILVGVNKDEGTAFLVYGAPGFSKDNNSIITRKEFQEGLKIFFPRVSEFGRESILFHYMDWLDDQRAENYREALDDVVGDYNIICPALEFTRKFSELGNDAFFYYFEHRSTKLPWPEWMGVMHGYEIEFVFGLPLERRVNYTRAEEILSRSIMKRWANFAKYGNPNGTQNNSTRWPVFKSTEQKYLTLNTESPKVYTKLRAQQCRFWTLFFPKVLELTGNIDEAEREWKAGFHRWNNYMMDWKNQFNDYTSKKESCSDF
Description: Inhibition of equine serum BuChE using S-butyrylthiocholine iodide as substrate preincubated with enzyme for 30 mins followed by substrate addition and measured after 30 mins by Ellman's method

Acetylcholinesterase = Acetylcholinesterase (Electrophorus electricus, UniProt O42275); assay type: ADME
Chain of Acetylcholinesterase (O42275 whole entry): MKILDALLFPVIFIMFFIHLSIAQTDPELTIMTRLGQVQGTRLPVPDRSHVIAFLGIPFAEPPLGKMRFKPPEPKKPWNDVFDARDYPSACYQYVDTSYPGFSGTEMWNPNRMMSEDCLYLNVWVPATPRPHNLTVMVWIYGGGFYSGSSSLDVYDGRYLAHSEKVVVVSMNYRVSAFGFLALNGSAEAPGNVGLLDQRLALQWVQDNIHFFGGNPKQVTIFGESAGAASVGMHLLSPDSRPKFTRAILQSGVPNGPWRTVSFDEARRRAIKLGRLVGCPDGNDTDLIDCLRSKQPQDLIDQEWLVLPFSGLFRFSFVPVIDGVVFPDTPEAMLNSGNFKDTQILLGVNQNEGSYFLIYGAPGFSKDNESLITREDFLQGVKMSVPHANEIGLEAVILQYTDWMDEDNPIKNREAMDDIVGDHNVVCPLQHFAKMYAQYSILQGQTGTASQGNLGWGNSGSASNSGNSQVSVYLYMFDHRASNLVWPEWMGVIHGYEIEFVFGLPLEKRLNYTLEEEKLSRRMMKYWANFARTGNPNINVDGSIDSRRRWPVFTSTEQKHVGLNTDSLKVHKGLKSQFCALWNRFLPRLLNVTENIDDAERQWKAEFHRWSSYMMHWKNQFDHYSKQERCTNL
Description: Inhibition of electric eel AChE using acetylthiocholine iodide as substrate preincubated for 30 mins followed by substrate addition and measured after 30 mins by Ellman's method

PC-12 [5] = experiment: cells; assay type: functional; details: Rattus norvegicus; remark: listed apart in the source

Row | Compound | viability at 50 µM (PC-12 [1]) | viability at 10 µM (PC-12 [2]) | viability at 1 µM (PC-12 [3]) | viability at 5 µM (PC-12 [4]) | IC50 (Cholinesterase) | IC50 (Acetylcholinesterase) | viability at 30 µM (PC-12 [5])
1 | O=c1c2cc(NS(=O)(=O)c3c(Cl)cccc3Cl)ccc2nc2n1CCc1c-2[nH]c2ccccc12 | 48.3% | 42.9% | 40.7% | 42.1% | 13.7 µM | 100 µM | 45.4%
2 | O=c1c2cc(NS(=O)(=O)c3cccs3)ccc2nc2n1CCc1c-2[nH]c2ccccc12 | 42.4% | 40.8% | 37.7% | 39.2% | > 100 µM | > 100 µM | 41.9%
3 | CC(C)(C)c1ccc(S(=O)(=O)Nc2ccc3nc4n(c(=O)c3c2)CCc2c-4[nH]c3ccccc23)cc1 | 43.6% | 41.2% | 37.6% | 39.9% | 13 µM | > 100 µM | 41.7%
4 | O=c1c2cc(NS(=O)(=O)c3ccc(Br)cc3)ccc2nc2n1CCc1c-2[nH]c2ccccc12 | 47.6% | 44.1% | 39.9% | 41.8% | 8.94 µM | 40.4 µM | 45.4%
5 | O=c1c2cc(NS(=O)(=O)c3ccc(Cl)s3)ccc2nc2n1CCc1c-2[nH]c2ccccc12 | 54.5% | 55.1% | 43.5% | 48% | 76.9 µM | > 100 µM | 56%
6 | COC(=O)c1sccc1S(=O)(=O)Nc1ccc2nc3n(c(=O)c2c1)CCc1c-3[nH]c2ccccc12 | 38% | 39.9% | 35.9% | 42.5% | > 100 µM | > 100 µM | 39.8%
7 | O=c1c2cc(NS(=O)(=O)c3cccc([N+](=O)[O-])c3)ccc2nc2n1CCc1c-2[nH]c2ccccc12 | 25.6% | 40.9% | 27% | 38.7% | 23.3 µM | > 100 µM | 34%
8 | COc1ccc(S(=O)(=O)Nc2ccc3nc4n(c(=O)c3c2)CCc2c-4[nH]c3ccccc23)c(OC)c1 | 51.1% | 52% | 49.6% | 51.1% | 7.58 µM | 77 µM | 56%
9 | COc1ccc(S(=O)(=O)Nc2ccc3nc4n(c(=O)c3c2)CCc2c-4[nH]c3ccccc23)cc1OC | 51% | 45.2% | 40.4% | 44% | 10.9 µM | 51.2 µM | 47.7%
10 | O=c1c2cc(NS(=O)(=O)c3ccc([N+](=O)[O-])cc3)ccc2nc2n1CCc1c-2[nH]c2ccccc12 | 31% | 37.1% | 32.4% | 33% | 16.5 µM | > 100 µM | 33.5%
11 | COc1cc2c(cc1OC)C(=O)C(CC1CCN(Cc3ccccc3)CC1)C2 (configuration not stated) [DONEPEZIL] | 76.7% | 65.5% | 49.2% | 57.1% | – | – | 68.9%
12 | COc1ccc(S(=O)(=O)Nc2ccc3nc4n(c(=O)c3c2)CCc2c-4[nH]c3ccccc23)cc1 | 49% | 42.3% | 39.3% | 51.8% | 8.01 µM | > 100 µM | 43.2%
13 | O=c1c(O)c(-c2ccc(O)c(O)c2)oc2cc(O)cc(O)c12 [QUERCETIN] | 62.7% | 57.9% | 48.9% | 56.3% | – | – | 60.6%
